Measurements reported in patent US4997850A, “Treating agent for osteroarthritis” (Kureha Kagaku Kogyo Kabushiki Kaisha, priority 1989, dated 1991).

Tests used:
[1] = Acute toxicity (LD50) of ACP in mice; assay type: in vivo; conditions: for LD50 at 168 h: in vivo, male; for LD50: female, 10080 min
Protocol: (§1) For oral administration, a suspension of ACP dispersed in an aqueous solution of 0.5% methylcellulose and 0.4% Tween 80 (nonionic surfactant, manufactured by TOKYO KASEI, Co., Ltd.) was prepared and administered to the animals via a stomach sonde. For subcutaneous administration, a suspension of ACP dispersed in an aqueous physiological saline solution containing 0.5% of carboxymethyl cellulose sodium (hereinafter referred to as "CMC") was prepared and injected to the animals with a syringe.

[2] = Acute toxicity (LD50) of ACP in rats; assay type: in vivo; conditions: for LD50 at 168 h: in vivo, male; for LD50: female, 10080 min
Protocol: as §1

[3] = system: IL-1α production in human synovial cells; assay: Inhibition of IL-1α production in human synovial cells; assay type: cell-based; conditions: TPA and A 23187 stimulation, 40 hours
Protocol: (§2) Human synovial membrane obtained at an operation was treated with collagenase to obtain synovial cells, which were subcultured several times and inoculated on a 12-well culture dish. On reaching to confluence, the cells were provided to the test described below. The synovial cells produce IL-1 but release only a little amount and accordingly are appropriate cells to study an inhibition or an acceleration of IL-1 intracellular production.
(§3) Each DMSO (dimethylsulfoxide) solution containing one of ACP, PAL and PAC separately in a concentration of 400 times that of the final test and DMSO solution not containing any of the compound as a control, were diluted to 40 times in its volume with a medium containing fetal bovine serum (hereinafter referred to as "FBS") [Ham Medium]. 100 μl of the diluted solution was added to each well and further, 800 μl of the medium [Ham] was added to each well. […] The concentration of TPA and the ionophore in the medium were adjusted so that their final concentration in the well became 0.1 μg/ml and 0.2 μg/ml, respectively and a production of IL-1 was stimulated. Final volume of the liquid (medium) per well was 1 ml/well. After 40 hours of culture, liquid portion was removed from each well and 1 ml of a Ham medium was added to the remaining cells in each well. Freeze-thawing was repeated on the medium containing the cells several times to destroy all the cells in the medium and supernatants containing intracellular substances were obtained by centrifugation. IL-1α and IL-1β in the supernatant were determined by ELISA method using a prescribed enzyme-antibody-complex (manufactured by OHTSUKA SEIYAKU, Co., Ltd.) as intracellular IL-1s. [Refer to ENSHO, vol.

[4] = system: IL-1β production in human synovial cells; assay: Inhibition of IL-1β production in human synovial cells; assay type: cell-based; conditions: TPA and A 23187 stimulation, 40 hours
Protocol: as §2, §3

[5] = system: IL-1 release from human monocyte; assay: Inhibition of IL-1 (IL-1α and IL-1β) release from human monocyte; assay type: cell-based; conditions: Homo sapiens, Monocyte, read-out: concentration at which the release of IL-1 is significantly inhibited; LPS 10 μg/ml, 42 hours
Protocol: Monocyte were isolated from human venous blood by density-gradient centrifugation using a Ficoll-paque solution and obtained the cells having a purity of not less than 95% by purifying with a monocyte-separating plate. After dispersing the cells in a medium, RPMI 1640, containing 10% of FBS, the monocyte were inoculated in a culture dish in a ratio of 10^6 cells/3 ml/well and cultured under an atmosphere containing 5% CO2 at 37° C. for 30 minutes. Then, each 15 μl of DMSO solution of one of ACP, PAL and PAC was added to each well (a final DMSO concentration of 0.5%) and 30 minutes later a lipopolysaccharide (hereinafter referred to as "LPS"), a substance to stimulate IL-1 production, was added at a final LPS concentration of 10 μg/ml and they were cultured for 42 hours. Then, the reacted culture medium was recovered and accompanied cells with the medium were separated by centrifugation and obtained the supernatant free of cell. IL-1α and IL-1β released from the cells were measured by ELISA method in the same manner as in item (i) above.

[6] = system: IL-1 release from cultured cartilage cells; assay: Inhibition of IL-1 release from cultured cartilage cells; assay type: cell-based, rabbit; conditions: 3.3 μM; TPA and A 23187 stimulation, 24 hours
Protocol: Cartilages were aseptically taken out from knee and shoulder joints of young rabbit, treated with a Ham medium containing 0.2% collagenase and separated each other into single cells. After washed two times with a Ham medium containing 10% FBS, the cells were dispersed into the Ham medium containing 10% FBS at a concentration of 10^5 cells/ml. […] After 24 hours of cultivation, IL-1 released into each of the supernatants was measured by a bioassay applying an incorporated amount of ^3 H-thymidine (^3 H-TdR) as an index. […] In the Figure, "Intact" means a case TPA and the ionophore were not added and accordingly no stimulation of IL-1 release was given.

[7] = system: proteoglycan (PG) in cultured cartilage cells; assay: Synthesis, release and remaining amount of proteoglycan (PG) in cultured cartilage cells; assay type: cell-based, rat
Protocol: Costal cartilage was aseptically taken out from male SD rats of 4 weeks age, enzymatically treated to separate it into single cells, then inoculated into a 12-well culture dish and cultured under an atmosphere containing 5% CO2 at 37° C. After the chondrocytes had been grown to confluence, 1 to 10 μM of PAL or 10 to 100 μM of PAC was added and three hours later, 2 μCi of Na2^35 SO4 was further added to each well. Twenty four hours later, the synthesis amount in, release amount from and remaining amount of PG in the matrix were determined using amount of ^35 S as an index. […] In the Figures, the PG release in the control was defined as 100%. […] In FIGS. 4(a), 4(b) and 4(c), the released amount of PG means the amount representing the PG degraded in and released from cartilage matrixes, which was calculated on a basis of ^35 S in the culture medium. The remaining amount of PG means the PG not degraded in the matrixes and was also calculated in the same way as above. Sum of the released and the remaining amounts of PG is thought to be a synthesized PG.

[8] = system: proteoglycan (PG) release under IL-1α; assay: Proteoglycan (PG) release from prelabelled cultured cartilage matrix with addition of IL-1α; assay type: cell-based; conditions: 20 units of IL-1α
Protocol: Further, to a cultured cartilage matrix, in which PG is prelabelled in advance with 1 μCi of Na2^35 SO4, 20 units of IL-1α was added to each group including control group and 10 μM of PAL, 100 μM of PAL or 10 μM of ACP was added to each test group and studied the effect of each compound to the PG release from the cells.

[9] = system: leukocyte migration; conditions: cited from earlier work
[10] = system: granuloma proliferation; conditions: cited from earlier work
[11] = system: adjuvant arthritis; conditions: in vivo; cited from earlier work
[12] = in vivo; cited from earlier work
[13] = Acute toxicity (LD50) of PAL in female Jcl:ICR mice; conditions: mouse, in vivo
Protocol: For oral administration, a suspension of PAL dispersed in an aqueous solution of 0.2% CMC was prepared (a part of PAL was dissolved in the solution) and administered to the animals via a stomach sonde. For intraperitoneal administration, a suspension of PAL dispersed in an aqueous physiological saline solution was prepared (a part of PAL was dissolved in the solution) and injected to the animals with a syringe.

[14] = system: proteoglycan (PG) release under IL-1α; assay: Proteoglycan (PG) release from prelabelled cultured cartilage matrix with addition of IL-1α; assay type: cell-based; conditions: 20 units of IL-1α, compared to control without IL-1; prelabelled 35S as 100%

CC(=O)Oc1ccc(C(OC(C)=O)OC(C)=O)cc1OC(C)=O [ACP, 3,4-diacetoxybenzylidene diacetate]
LD50 at 168 h ([1]; sc, subcutaneous, Jcl:ICR mouse): > 4000 mg/kg | LD50 at 168 h ([1]; oral, CD-1 mouse): > 5000 mg/kg | LD50 ([1]; oral, CD-1 mouse): > 5000 mg/kg | LD50 ([1]; subcutaneous, Jcl:ICR mouse): > 4000 mg/kg | LD50 at 168 h ([2]; sc, subcutaneous, Jcl:Wistar rat): > 4000 mg/kg | LD50 at 168 h ([2]; oral, Sprague-Dawley rat): > 5000 mg/kg | LD50 ([2]; oral, Sprague-Dawley rat): > 5000 mg/kg | LD50 ([2]; subcutaneous, Jcl:Wistar rat): > 4000 mg/kg | inhibiting activity of IL-1α production ([3]; 10 μM): strong inhibiting activity | inhibiting activity of IL-1β production ([4]; 10 μM): strong inhibiting activity | minimal effective concentration [5]: 0.67 µM | inhibition of IL-1 release from cartilage cells [6]: inhibit the release of IL-1 | effect on PG synthesis, release and remaining amount (ACP) ([7]; compared with PAL and PAC, concentration not given): effect having similar tendency | inhibition of PG release under IL-1α ([8]; 10 μM): inhibited the release amount | suppressing activity of leukocyte migration [9]: suppressing activity | suppressing activity of granuloma proliferation [10]: suppressing activity | suppressing activity of adjuvant arthritis [11]: suppressing activity | toxicity to mammals including human [12]: very low toxic

O=Cc1ccc(O)c(O)c1 [PAL, 3,4-dihydroxybenzaldehyde]
LD50 at 168 h ([13]; ip, intraperitoneal): 404 mg/kg | LD50 at 168 h ([13]; oral): 1500 mg/kg | inhibiting activity of IL-1α production ([3]; 33 μM): strong inhibiting activity | inhibiting activity of IL-1β production ([4]; 33 μM): strong inhibiting activity | minimal effective concentration [5]: 0.33 µM | inhibition of IL-1 release from cartilage cells [6]: inhibit the release of IL-1 | effect on PG synthesis ([7]; PAL 1 to 10 μM, PAC 10 to 100 μM, 24 hours): no effect | inhibition of PG release ([7]; PAL 1 to 10 μM, PAC 10 to 100 μM, control release 100%): exhibited inhibiting activities on the PG release | remaining amount of PG in the matrix ([7]; PAL between 1 and 3.3 μM, PAC between 10 and 100 μM): increased in proportion to the adding amount | inhibition of PG release under IL-1α ([8]; PAL 10 μM and 100 μM): inhibited the release amount proportionally to the amount added | suppressing activity of leukocyte migration [9]: suppressing activity | suppressing activity of granuloma proliferation [10]: suppressing activity | suppressing activity of adjuvant arthritis [11]: suppressing activity | toxicity to mammals including human [12]: very low toxic

B1: IL-1α: interleukin 1 alpha, added to cultured cartilage matrix to increase proteoglycan release (protein, UniProt P01583 113-271, looked up)
Interleukin-1 alpha: SAPFSFLSNVKYNFMRIIKYEFILNDALNQSIIRANDQYLTAAALHNLDEAVKFDMGAYKSSKDDAKITVILRISKTQLYVTAQDEDQPVLLKEMPEIPKTITGSETNLLFFWETHGTKNYFTSVAHPNLFIATKQDYWVCLAGGPPSITDFQILENQA
increase of PG release by IL-1α [14]: about 20%
